Results reported in patent US20190225650A1, “PEPTIDOMIMETIC MACROCYCLES AND USE THEREOF IN REGULATING HIF1ALPHA” (AILERON THERAPEUTICS, INC., priority 2013, published 2019).
Bridge positions count the residues as written; N and C are the ends. Square brackets hold non-standard residues; d marks the D form. Peptide text beside a SMILES is read from it. R8 = C=CCCCCCC[C@@](C)(N)C(=O)O; S5 = C=CCCC[C@](C)(N)C(=O)O; Nle = CCCC[C@H](N)C(=O)O

What was measured:
HRE-bla ME-180 cells [1] = experiment: Reporter gene assay (HRE-bla ME-180 HIF reporter, GeneBLAzer); format: cell-based, human; conditions: for EC50: 24 hour normoxia
In short: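 A FRET β-lactamase readout of HIF transcription was used. After compound treatment in 0.3% DMSO/media under normoxic conditions, 20 μl of 6× LiveBLAzer-FRET B/G (CCF4-AM) substrate was added. Plates sat 3 hr at room temperature in the dark and were read at 409 Ex/460Em and 409Ex/530Em on a Synergy 2. Inhibition was compared against DMSO vehicle controls, with chetomin as positive control.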

HRE-bla ME-180 cells [2] = experiment: Cell proliferation assay (viability, MTT, 1% FBS); format: cell-based, human
Experimental: The human cervical cell line HRE-Bla ME-180 was obtained from Invitrogen. 2×10^4 ME-180 cells were plated in 96-well plates (costar) in Opti-MEM plus 1% FBS (Invitrogen). After 4 hr, cells were pretreated with chetomin, peptide or 0.5% DMSO (final concentration in media) vehicle control for 16 hr under normoxia (21% O2); then incubation continued under normoxia or hypoxia (1% O2) using a hypoxia incubator (Thermo Forma model). Viable cell numbers were quantified using CellTiter 96 Non-Radioactive Cell Proliferation kit (Promega, G4100). The results are presented in the column “Viability 1% FBS AVG (MTT V3-24 hr Normoxia) (μM)” of Table 6.

Row | SMILES | EC50 (HRE-bla ME-180 cells [1]) [µM] | 18 h Avg % max inhibition at top conc (HIF Rptr-24 hrs normoxia) (μM) (HRE-bla ME-180 cells [1]) | Viability 1% FBS AVG (MTT V3-24 hr Normoxia) (μM) (HRE-bla ME-180 cells [2])
1 | CC[C@H](C)[C@H](NC(=O)[C@H](CCCNC(=N)N)NC(=O)[C@H](CC(=O)O)NC(=O)[C@H](CC(C)C)NC(=O)[C@H](C)NC(=O)[C@H](CCSC)NC(=O)[C@]1(C)CCCC=CCCC[C@](C)(NC(=O)[C@H](CCSC)NC(=O)[C@H](CC(C)C)NC(=O)[C@@H](NC(=O)[C@H](CCC(N)=O)NC(=O)[C@H](CCC(=O)O)NC(=O)[C@H](CC(=O)O)NC(=O)[C@@H](NC(=O)[C@H](Cc2ccccc2)NC(C)=O)[C@@H](C)CC)C(C)C)C(=O)N[C@@H](CC(C)C)C(=O)N[C@@H](C(C)C)C(=O)N[C@@H]([C@@H](C)CC)C(=O)N1)C(N)=O [SP-282] (Ac-FIDEQVLM[S5]LVI[S5]MALDRI-NH2; staple 9-13) | ≤ 5 | ++++ (≥50: ++++) | ++++ (≥30: ++++)
2 | CCCC[C@H](NC(=O)[C@H](CCC(=O)O)NC(=O)[C@@H](NC(=O)[C@@H](NC(=O)[C@H](CC(C)C)NC(=O)[C@]1(C)CCCC=CCCC[C@](C)(NC(=O)[C@H](CCC(=O)O)NC(=O)[C@H](CC(=O)O)NC(=O)[C@@H](NC(=O)[C@H](CC(N)=O)NC(=O)[C@@H](NC(=O)[C@H](CCC(N)=O)NC(=O)[C@H](CC(=O)O)NC(=O)[C@H](CC(C)C)NC(=O)[C@H](C)NC(=O)[C@H](CCCNC(=N)N)NC(=O)[C@]2(C)CCCC=CCCC[C@](C)(NC(=O)[C@H](CCC(N)=O)NC(=O)[C@H](CC(C)C)NC(=O)[C@H](CC(C)C)NC(C)=O)C(=O)N[C@@H](CCC(=O)O)C(=O)N[C@@H](CCC(=O)O)C(=O)N[C@@H](CC(C)C)C(=O)N2)C(C)C)[C@@H](C)CC)C(=O)N[C@@H](C(C)C)C(=O)N[C@@H](CC(C)C)C(=O)N[C@@H](CCCC)C(=O)N1)C(C)C)[C@@H](C)CC)C(=O)NCC(N)=O [SP-325] (Ac-LLQ[S5]EEL[S5]RALDQVNIDE[S5]VL[Nle][S5]LVIE[Nle]G-NH2; staple 4-8, 19-23) | > 30 | + (<10: +) | ++++ (≥30: ++++)
3 | CC[C@H](C)[C@H](NC(=O)[C@H](CCCNC(=N)N)NC(=O)[C@H](CC(=O)O)NC(=O)[C@H](CC(C)C)NC(=O)[C@H](C)NC(=O)[C@H](CCSC)NC(=O)[C@]1(C)CCCC=CCCC[C@](C)(NC(=O)[C@H](CCSC)NC(=O)[C@H](Cc2ccccc2)NC(=O)[C@@H](NC(=O)[C@H](CCC(=O)O)NC(=O)[C@H](CCC(N)=O)NC(=O)[C@H](CC(=O)O)NC(=O)[C@@H](NC(=O)[C@H](Cc2ccccc2)NC(C)=O)[C@@H](C)CC)C(C)C)C(=O)N[C@@H](CC(C)C)C(=O)N[C@@H](C(C)C)C(=O)N[C@@H]([C@@H](C)CC)C(=O)N1)C(N)=O [SP-267] (Ac-FIDQEVFM[S5]LVI[S5]MALDRI-NH2; staple 9-13) | > 30 | +++ (≤25 but <50: +++) | ++++ (≥30: ++++)
4 | CC[C@H](C)[C@H](NC(=O)[C@H](Cc1ccccc1)NC(C)=O)C(=O)N[C@@H](CC(=O)O)C(=O)N[C@@H](CCC(=O)O)C(=O)N[C@H](C(=O)N[C@H](C(=O)N[C@@H](CC(C)C)C(=O)N[C@@H](CCSC)C(=O)N[C@@]1(C)CCCC=CCCC[C@@](C)(C(=O)N[C@@H](CCSC)C(=O)N[C@@H](C)C(=O)N[C@@H](CC(C)C)C(N)=O)NC(=O)[C@H]([C@@H](C)CC)NC(=O)[C@H](C(C)C)NC(=O)[C@H](CC(C)C)NC1=O)C(C)C)[C@@H](C)O [SP-239] (Ac-FIDETVLM[S5]LVI[S5]MAL-NH2; staple 9-13) | > 30 | ++ (≤10 but <25: ++) | ++++ (≥30: ++++)
5 | CC[C@H](C)[C@H](NC(=O)[C@H](Cc1ccccc1)NC(C)=O)C(=O)N[C@@H](CC(=O)O)C(=O)N[C@@H](CCC(=O)O)C(=O)N[C@@H](CCC(=O)O)C(=O)N[C@H](C(=O)N[C@@H](CC(C)C)C(=O)N[C@@H](CCSC)C(=O)N[C@@]1(C)CCCC=CCCC[C@@](C)(C(=O)N[C@@H](CCSC)C(=O)N[C@@H](C)C(=O)N[C@@H](CC(C)C)C(=O)N[C@@H](CC(C)C)C(N)=O)NC(=O)[C@H]([C@@H](C)CC)NC(=O)[C@H](C(C)C)NC(=O)[C@H](CC(C)C)NC1=O)C(C)C [SP-229] (Ac-FIDEEVLM[S5]LVI[S5]MALL-NH2; staple 9-13) | > 30 | + (<10: +) | ++++ (≥30: ++++)

Second part, led by results:

Row | EC50 (HRE-bla ME-180 cells [1]) [µM] | SMILES | 18 h Avg % max inhibition at top conc (HIF Rptr-24 hrs normoxia) (μM) (HRE-bla ME-180 cells [1]) | Viability 1% FBS AVG (MTT V3-24 hr Normoxia) (μM) (HRE-bla ME-180 cells [2])
6 | ≤ 5 | CCCC[C@H](NC(=O)[C@H](Cc1ccccc1)NC(=O)[C@@H](NC(=O)[C@H](C)NC(=O)[C@H](CCC(N)=O)NC(=O)[C@H](CC(=O)O)NC(=O)[C@@H](NC(=O)[C@H](Cc1ccccc1)NC(C)=O)[C@@H](C)CC)C(C)C)C(=O)N[C@@]1(C)CCCC=CCCC[C@@](C)(C(=O)N[C@@H](CCC(N)=O)C(=O)N[C@@H](C)C(=O)N[C@@H](CC(C)C)C(=O)N[C@@H](CC(C)C)C(N)=O)NC(=O)[C@H]([C@@H](C)CC)NC(=O)[C@H](C(C)C)NC(=O)[C@H](CC(C)C)NC1=O [SP-255] (Ac-FIDQAVF[Nle][S5]LVI[S5]QALL-NH2; staple 9-13) | ++++ (≥50: ++++) | + (<5: +)
7 | > 30 | CCCC[C@H](NC(=O)[C@H](C)NC(=O)[C@]1(C)CCCC=CCCCCCC[C@@](C)(NC(=O)[C@H](C)NC(=O)[C@H](C)NC(=O)[C@@H](NC(=O)[C@H](CC(N)=O)NC(=O)[C@@H](NC(=O)[C@H](CCC(N)=O)NC(=O)[C@]2(C)CCCC=CCCC[C@](C)(NC(=O)[C@H](CC(C)C)NC(=O)[C@H](C)NC(=O)[C@H](C)NC(=O)CNC(=O)[C@H](CCC(N)=O)NC(=O)[C@H](CC(C)C)NC(=O)[C@H](CC(C)C)NC(C)=O)C(=O)N[C@@H](CCCNC(=N)N)C(=O)N[C@@H](C)C(=O)N[C@@H](CC(C)C)C(=O)N2)C(C)C)[C@@H](C)CC)C(=O)N[C@@H](C(C)C)C(=O)N[C@@H](CC(C)C)C(=O)N[C@@H](CCCC)C(=O)N[C@@H](CO)C(=O)N[C@@H](CC(C)C)C(=O)N[C@@H](C(C)C)C(=O)N1)C(N)=O [SP-364] (Ac-LLQGAAL[S5]RAL[S5]QVNIAA[R8]VL[Nle]SLV[S5]A[Nle]-NH2; staple 8-12, 19-26) | ++ (≤10 but <25: ++) | ++++ (≥30: ++++)
8 | > 30 | CC[C@H](C)[C@H](NC(=O)[C@H](CC(N)=O)NC(=O)[C@@H](NC(=O)[C@H](CCC(N)=O)NC(=O)[C@H](CC(=O)O)NC(=O)[C@H](CC(C)C)NC(=O)[C@H](C)NC(=O)[C@H](CCCNC(=N)N)NC(=O)[C@H](CC(C)C)NC(=O)[C@H](CC(C)C)NC(=O)[C@H](CCC(=O)O)NC(=O)[C@H](CCC(=O)O)NC(=O)CNC(=O)[C@H](CCC(N)=O)NC(=O)[C@H](CC(C)C)NC(=O)[C@H](CC(C)C)NC(C)=O)C(C)C)C(=O)N[C@@H](CC(=O)O)C(=O)N[C@@H](CCC(=O)O)C(=O)N[C@@H](CCC(=O)O)C(=O)N[C@H](C(=O)N[C@@H](CC(C)C)C(=O)N[C@@H](CCSC)C(=O)N[C@@]1(C)CCCC=CCCC[C@@](C)(C(=O)N[C@@H](CCSC)C(N)=O)NC(=O)[C@H]([C@@H](C)CC)NC(=O)[C@H](C(C)C)NC(=O)[C@H](CC(C)C)NC1=O)C(C)C [SP-319] (Ac-LLQGEELLRALDQVNIDEEVLM[S5]LVI[S5]M-NH2; staple 23-27) | + (<10: +) | ++++ (≥30: ++++)
9 | > 30 | CCCC[C@H](NC(=O)[C@H](CCC(=O)O)NC(=O)[C@@H](NC(=O)[C@@H](NC(=O)[C@H](CC(C)C)NC(=O)[C@]1(C)CCCC=CCCC[C@](C)(NC(=O)[C@H](CCC(=O)O)NC(=O)[C@H](CC(=O)O)NC(=O)[C@@H](NC(=O)[C@H](CC(N)=O)NC(=O)[C@@H](NC(=O)[C@H](CCC(N)=O)NC(=O)[C@]2(C)CCCC=CCCC[C@](C)(NC(=O)[C@H](CC(C)C)NC(=O)[C@H](CCC(=O)O)NC(=O)[C@H](CCC(=O)O)NC(=O)CNC(=O)[C@H](CCC(N)=O)NC(=O)[C@H](CC(C)C)NC(=O)[C@H](CC(C)C)NC(C)=O)C(=O)N[C@@H](CCCNC(=N)N)C(=O)N[C@@H](C)C(=O)N[C@@H](CC(C)C)C(=O)N2)C(C)C)[C@@H](C)CC)C(=O)N[C@@H](C(C)C)C(=O)N[C@@H](CC(C)C)C(=O)N[C@@H](CCCC)C(=O)N1)C(C)C)[C@@H](C)CC)C(=O)NCC(N)=O [SP-327] (Ac-LLQGEEL[S5]RAL[S5]QVNIDE[S5]VL[Nle][S5]LVIE[Nle]G-NH2; staple 8-12, 19-23) | + (<10: +) | ++++ (≥30: ++++)
10 | ≤ 5 | CCCC[C@H](NC(=O)[C@H](Cc1ccccc1)NC(=O)[C@@H](NC(=O)[C@H](C)NC(=O)[C@H](CCC(N)=O)NC(=O)[C@H](CC(=O)O)NC(=O)[C@@H](NC(=O)[C@H](Cc1ccccc1)NC(C)=O)[C@@H](C)CC)C(C)C)C(=O)N[C@@]1(C)CCCC=CCCC[C@@](C)(C(=O)N[C@@H](CCCC)C(=O)N[C@@H](C)C(=O)N[C@@H](CC(C)C)C(=O)N[C@@H](CC(C)C)C(N)=O)NC(=O)[C@H]([C@@H](C)CC)NC(=O)[C@H](C(C)C)NC(=O)[C@H](Cc2c[nH]cn2)NC1=O [SP-254] (Ac-FIDQAVF[Nle][S5]HVI[S5][Nle]ALL-NH2; staple 9-13) | +++ (≤25 but <50: +++) | + (<5: +)
